In one assay the test system is E. coli 6880. The experiment in a line: two-fold agar dilution assay, M.I.C. The class given is cell-based. The settings on record: for MIC: Escherichia coli, substance alone, agar dilution, read-out: minimum inhibitory concentration (M.I.C.). The source says: (§1) In a two-fold agar dilution assay with E. coli (Juhl) and E. coli 6880 as test organisms, compounds of Examples 1 and 2 show a minimum inhibitory concentration (M.I.C.) of >800 ppm. […] The combination of the new peptide with D-cycloserine produces the following M.I.C. test results.

Assay [1] deals with E. coli (Juhl). The experiment in a line: two-fold agar dilution assay, M.I.C. The class given is cell-based. The settings on record: for MIC: Escherichia coli, substance alone, agar dilution, read-out: minimum inhibitory concentration (M.I.C.).
From the text: as §1
(In general: In agar dilution, organisms are placed on agar that contains the substance at set levels.)

For a further assay, the system named is Strep. pyrogenes (C 203). The assay is described as follows: mouse protection test, CD50 (Table III). It counts as in vivo. How it is done:
(§2) Charles River mice, weighing approximately 20 g. each, are infected intraperitoneally with 10-100 times the LD of the infecting organism. At predetermined intervals post-infection, e.g., 1 and 5 hours, mice are dosed subcutaneously with graded doses of the halogenated peptide, antibiotic and combination thereof. The number of mice surviving each treatment for 7 days post-infection is observed and the CD50 is calculated. The fractional inhibitory concentration (F.I.C.) for each combination is calculated in the usual manner.
(§3) In this table, the following infecting microorganisms were used:
Strep. pyrogenes (C 203).
(§4) The infecting organisms are listed by the above code; the compounds are listed by their Example number. In all instances, the dipeptide and D-cycloserine were tested at a ratio of 10:1. The CD50 combination column lists only the amount of peptide present; the D-cycloserine amount is 10% of the listed amount.

The subject of a further assay is E. coli (305-101). The assay is described as follows: mouse protection test, CD50 (Table III). It counts as in vivo. How it is done:
as §2, §3, §4

Assay [2] concerns E. coli (Juhl). The experiment in a line: serial dilution in synthetic medium in test tubes, MIC and F.I.C. index (Table II). It counts as cell-based. To be noted: for MIC: Escherichia coli. How it is done:
The halogenated peptides alone, the antibiotic alone or mixtures of the halogenated peptides and selected antibiotics are prepared in sterile concentrated aqueous solutions at the desired ratios. Serial dilutions are made to give a range of concentrations of the test substances. Samples of the dilutions are mixed with an appropriate sterile synthetic medium in test tubes. The tubes are then inoculated with an appropriate test organism and incubated at 35°-37° C. for 16-20 hours. Minimum inhibitory concentrations, i.e., that concentration which inhibits visible growth, are read and the fractional inhibitory concentration indices (F.I.C.) are calculated. In all instances, E. coli (Juhl) was used as the infecting microorganism.

A further assay relates to S. aureus (Smith). The assay is described as follows: mouse protection test, CD50 (Table III). It counts as in vivo. To be noted: for F.I.C. Index / CD50 (mg/kg) Combination: S. aureus (Smith) in mice, dipeptide:D-cycloserine 10:1; for CD50 (mg/kg) Combination: amount of peptide only listed, D-cycloserine is 10% of it; for CD50 (mg/kg) Peptide: mice infected i.p. with S. aureus (Smith), dosed subcutaneously, 7 days survival, peptide alone. How it is done:
as §2, §3, §4

Assay [3] deals with E. coli (Juhl). The experiment in a line: mouse protection test, CD50 (Table III). The class given is in vivo. To be noted: for F.I.C. Index / CD50 (mg/kg) Combination: E. coli (Juhl) in mice, dipeptide:D-cycloserine 10:1; for CD50 (mg/kg) Combination: amount of peptide only listed, D-cycloserine is 10% of it; for CD50 (mg/kg) Peptide: mice infected i.p. with E. coli (Juhl), dosed subcutaneously, 7 days survival, peptide alone. As to the method: as §2, §3, §4

The mark [4] stands for this setting: peptide:D-cycloserine ratio 1:1.
[5] abbreviates: peptide:D-cycloserine ratio 1:8.
Where [6] appears, read: peptide:D-cycloserine ratio 8:1.
The mark [7] stands for this setting: combination with D-cycloserine, ratio Pep/Antib. 1:1, read-out: MIC ppm Pep/Antib., peptide part.
Where [8] appears, read: combination with D-cycloserine, ratio Pep/Antib. 1:8, read-out: MIC ppm Pep/Antib., peptide part.
Where [9] appears, read: peptide alone, E. coli (Juhl), 35-37° C., 16-20 hours, read-out: MIC ppm Peptide.
Setting [10] is: combination with D-cycloserine, ratio Pep/Antib. 1:1.
Where [11] appears, read: combination with D-cycloserine, ratio Pep/Antib. 1:8.
[12] abbreviates: combination with D-cycloserine, ratio Pep/Antib. 8:1.
Where [13] appears, read: combination with cephalothin, ratio Pep/Antib. 1:1.
Where [14] appears, read: combination with carbencillin, ratio Pep/Antib. 1:1.
[15] abbreviates: combination with carbencillin, ratio Pep/Antib. 1:8.
[16] abbreviates: peptide alone, E. coli (Juhl), 35-37° C., 16-20 hours.

“And” between values parts separate entries of the source, which are not always exact repeats. Equal entries are not always repeated. Where only a bound is given, the exact number is not on record here.

On to `N[C@@H]1CON=C1O` [D-cycloserine, reference compound], for which the MIC was determined as 6.2 µg/mL in the assay with E. coli 6880 and 12.5 µg/mL in the assay on E. coli (Juhl) [1]. The “CD50 (mg/kg) Cycloserine” value is listed as more than 100 mg/kg with Strep. pyrogenes (C 203) (mice infected i.p. with Strep. pyrogenes (C 203), dosed subcutaneously, 7 days survival, D-cycloserine alone) and 63 mg/kg in the assay on E. coli (305-101) (mice infected i.p. with E. coli (305-101), dosed subcutaneously, 7 days survival, D-cycloserine alone).
`Br.C[C@H](N)C(=O)N[C@H](CF)C(=O)O` [Example 1, L-alanyl-β-fluoro-D-alanine hydrobromide]: the MIC in the assay with E. coli 6880 was more than 800 µg/mL; with E. coli (Juhl) [1], more than 800 µg/mL; in the assay on E. coli (Juhl) [2] (setting [7]) it was 0.2 µg/mL; with E. coli (Juhl) [2] (setting [8]) it was 0.2 µg/mL; in the assay on E. coli (Juhl) [2] (combination with D-cycloserine, ratio Pep/Antib. 8:1, read-out: MIC ppm Pep/Antib., peptide part), 0.39 µg/mL; in the assay on E. coli (Juhl) [2] (setting [9]), more than 800 µg/mL. Also, the “M.I.C. of combination, D-cycloserine part” value in the assay with E. coli 6880 (setting [4]) came to 0.1 ppm; in the assay with E. coli 6880 (setting [5]), 0.78 ppm; in the assay with E. coli 6880 (setting [6]), 0.05 ppm; in the assay with E. coli (Juhl) [1] (setting [4]), 0.2 ppm; in the assay with E. coli (Juhl) [1] (setting [5]), 1.56 ppm; in the assay on E. coli (Juhl) [1] (setting [6]), 0.05 ppm. The “M.I.C. of combination, peptide part” value with E. coli 6880 (setting [4]) stood at 0.1 ppm; with E. coli 6880 (setting [5]), 0.1 ppm; in the assay with E. coli 6880 (setting [6]), 0.39 ppm; in the assay on E. coli (Juhl) [1] (setting [4]) it was 0.2 ppm; in the assay on E. coli (Juhl) [1] (setting [5]), 0.2 ppm; in the assay on E. coli (Juhl) [1] (setting [6]), 0.39 ppm. The “F.I.C. Index” value is given as 0.60 with Strep. pyrogenes (C 203) (Strep. pyrogenes (C 203) in mice, dipeptide:D-cycloserine 10:1); 0.02 with E. coli (Juhl) [2] (setting [10]); 0.12 in the assay with E. coli (Juhl) [2] (setting [11]); 0.004 with E. coli (Juhl) [2] (setting [12]); 0.90 in the assay on E. coli (305-101) (E. coli (305-101) in mice, dipeptide:D-cycloserine 10:1); less than 0.37 with S. aureus (Smith). Besides, the “CD50 (mg/kg) Combination” value in the assay with Strep. pyrogenes (C 203) (Strep. pyrogenes (C 203) in mice, dipeptide:D-cycloserine 10:1, amount of peptide only listed, D-cycloserine is 10% of it) is reported as 10.9 mg/kg; with E. coli (305-101) (E. coli (305-101) in mice, dipeptide:D-cycloserine 10:1, amount of peptide only listed, D-cycloserine is 10% of it) it was 25 mg/kg; in the assay on S. aureus (Smith), less than 3.1 mg/kg. The “CD50 (mg/kg) Peptide” value in the assay on Strep. pyrogenes (C 203) (mice infected i.p. with Strep. pyrogenes (C 203), dosed subcutaneously, 7 days survival, peptide alone) was determined as 17.8 mg/kg; with E. coli (305-101) (mice infected i.p. with E. coli (305-101), dosed subcutaneously, 7 days survival, peptide alone) it was 26 mg/kg; with S. aureus (Smith) it was 9.2 mg/kg. Also, the results for the “MIC ppm Pep/Antib., antibiotic part” value in the assay on E. coli (Juhl) [2] (setting [10]), in the assay with E. coli (Juhl) [2] (setting [11]) and in the assay with E. coli (Juhl) [2] (setting [12]) were 0.2 ppm, 1.56 ppm and 0.05 ppm, respectively.
Consider `C[C@H](N)C(=O)N[C@H](CCl)C(=O)O` [Example 2, L-alanyl-β-chloro-D-alanine], for which the MIC is more than 800 µg/mL with E. coli 6880; more than 800 µg/mL with E. coli (Juhl) [1]; 0.78 µg/mL in the assay with E. coli (Juhl) [2] (setting [7]); 0.2 µg/mL in the assay on E. coli (Juhl) [2] (setting [8]); 3.1 µg/mL in the assay with E. coli (Juhl) [2] (combination with cephalothin, ratio Pep/Antib. 1:1, read-out: MIC ppm Pep/Antib., peptide part); more than 800 µg/mL in the assay on E. coli (Juhl) [2] (setting [9]). For the same compound, the “M.I.C. of combination, D-cycloserine part” value with E. coli 6880 (setting [4]) was 0.78 ppm; in the assay with E. coli 6880 (setting [5]) it was 0.78 ppm; in the assay with E. coli 6880 (setting [6]) it was 0.39 ppm; in the assay on E. coli (Juhl) [1] (setting [4]), 0.78 ppm; in the assay with E. coli (Juhl) [1] (setting [5]), 1.56 ppm; in the assay on E. coli (Juhl) [1] (setting [6]), 0.78 ppm. Further, the “M.I.C. of combination, peptide part” value in the assay with E. coli 6880 (setting [4]) turned out to be 0.78 ppm; in the assay with E. coli 6880 (setting [5]), 0.1 ppm; with E. coli 6880 (setting [6]) it was 3.1 ppm; with E. coli (Juhl) [1] (setting [4]), 0.78 ppm; with E. coli (Juhl) [1] (setting [5]), 0.2 ppm; with E. coli (Juhl) [1] (setting [6]), 0.62 ppm. Further, the “F.I.C. Index” value came out at 0.06 in the assay with E. coli (Juhl) [2] (setting [10]), 0.12 in the assay with E. coli (Juhl) [2] (setting [11]), 0.50 in the assay with E. coli (Juhl) [2] (setting [13]) and 0.34 in the assay on S. aureus (Smith). In addition, the “MIC ppm Pep/Antib., antibiotic part” value turned out to be 0.78 ppm in the assay on E. coli (Juhl) [2] (setting [10]), 1.56 ppm with E. coli (Juhl) [2] (setting [11]) and 3.1 ppm with E. coli (Juhl) [2] (setting [13]). For the same compound, the “CD50 (mg/kg) Combination” value in the assay with S. aureus (Smith) came out at 35 mg/kg. In the assay with S. aureus (Smith), the “CD50 (mg/kg) Peptide” value is on record as 170 mg/kg.
As to `CC(C)C[C@H](N)C(=O)N[C@H](CF)C(=O)O` [Example 4, L-Leu-βF-D-Ala], the “F.I.C. Index” value with E. coli (Juhl) [2] (setting [10]) was 0.008; with E. coli (Juhl) [2] (setting [11]) it was 0.06; in the assay on E. coli (Juhl) [2] (setting [14]), 0.25; with E. coli (Juhl) [2] (setting [15]), 2.0; in the assay on E. coli (Juhl) [3] it was 0.41; in the assay with S. aureus (Smith), 0.25. Also, the “MIC ppm Pep/Antib., antibiotic part” value is given as 0.1 ppm with E. coli (Juhl) [2] (setting [10]), 0.78 ppm in the assay with E. coli (Juhl) [2] (setting [11]), 1.56 ppm in the assay with E. coli (Juhl) [2] (setting [14]) and 12.5 ppm in the assay with E. coli (Juhl) [2] (setting [15]). Further, the “MIC ppm Pep/Antib., peptide part” value in the assay with E. coli (Juhl) [2] (setting [10]) was 0.1 ppm; with E. coli (Juhl) [2] (setting [11]) it was 0.1 ppm; in the assay with E. coli (Juhl) [2] (setting [14]), 1.56 ppm; in the assay with E. coli (Juhl) [2] (setting [15]), 1.56 ppm. The “MIC ppm Peptide” value in the assay with E. coli (Juhl) [2] (setting [16]) is > 200 ppm and > 100 ppm. The “CD50 (mg/kg) Combination” value with E. coli (Juhl) [3] is listed as 10.1 mg/kg; with S. aureus (Smith) it was 1.6 mg/kg. Besides, the “CD50 (mg/kg) Peptide” value in the assay with E. coli (Juhl) [3] is given as 25.9 mg/kg; in the assay on S. aureus (Smith), 7.4 mg/kg.
In the case of `N[C@@H](CCC(=O)O)C(=O)N[C@H](CF)C(=O)O` [Example 9, L-Glu-βF-D-Ala], in the assay on E. coli (Juhl) [2] (setting [11]), the “F.I.C. Index” value was found to be 0.50; the “MIC ppm Pep/Antib., antibiotic part” value is recorded as 3.1 ppm; the “MIC ppm Pep/Antib., peptide part” value stood at 0.39 ppm. Moreover, in the assay on E. coli (Juhl) [2] (setting [16]), the “MIC ppm Peptide” value is listed as more than 800 ppm. For the same compound, in the assay with E. coli (Juhl) [3], the “F.I.C. Index” value worked out at 0.96, the “CD50 (mg/kg) Combination” value turned out to be 72 mg/kg and the “CD50 (mg/kg) Peptide” value amounted to 81 mg/kg. Also, in the assay with S. aureus (Smith), the “F.I.C. Index” value is given as 0.30, the “CD50 (mg/kg) Combination” value worked out at 7.6 mg/kg and the “CD50 (mg/kg) Peptide” value was found to be 28.5 mg/kg.

For the origin of these results see US4264590A, “Antibacterial peptide” (Abbott Laboratories, priority 1980, dated 1981).
